Experimental data published in paper PMC8920304, “Potent Inhibition of Human Cytochrome P450 3A4 by Biflavone Components from Ginkgo Biloba and Selaginella Tamariscina” (Frontiers in Pharmacology, 2022).

Tests used:
CYP3A4 [1] = target: T1, CYP3A4 (Homo sapiens, UniProt P08684); assay: Inhibition of NEN 4-hydroxylation in human liver microsomes (fluorescence high-throughput screening); format: in vitro ADME; settings: HLM, NEN probe, mean ± S.D. (n = 3); read-out: IC50 against CYP3A4 (NEN 4-hydroxylation)
T1 construct: The primary incubation mixture contains HLM, potassium phosphate buffer; from tissue; host or cells: human liver microsomes (HLM)
Experimental: The primary incubation mixture contains HLM, potassium phosphate buffer (pH 7.4, 100 mM), G-6-P (10 mM), G-6-P dehydrogenase (1 U/ml), MgCl2 (4 mM), NEN (50 µM), extracts of herbal medicine (20 µg/ml), or components. The incubation duration and HLM protein concentrations were 30 min and 0.05 mg/ml, respectively. The reaction was initiated by the addition of NADP^+ and terminated by the addition of 100 µL ice-cold acetonitrile (ACN). NEN 4-hydroxylation were utilized as the probe reaction for CYP3A4, and fluorescence image of 96-well microplates were measured by a fluorescent image analyzer (GE Amersham Typhoon, Sweden) under the excitation wavelength of 488 nm (E m: 570 ± 15 nm). The formation of NEHN was evaluated by the quantitative analysis of fluorescence signal for individual wells of microplates using the equipment supporting software. The percentage residual activity was calculated from percentage relative value of NEHN formation rate.

CYP3A4 [2] = target: T1, CYP3A4; assay: Inhibition kinetic characterization with NEN 4-hydroxylation in HLM; format: in vitro ADME; settings: for Type of inhibition: NEN 4-hydroxylation; for Ki: NEN 15-150 µM, 30 min; for ɑ (degree to which inhibitor binding influences enzyme-substrate binding): mixed-inhibition model
Experimental: Varying concentrations of DGK, GK, IGK, and AMF incubated for 30 min with varying concentrations of NEN (15–150 µM). The high-throughput screening assay was performed, and the inhibition curve was fitted with GraphPad Prism (Version 8.0). The inhibition type was confirmed based on the R square of the following four equations and the Dixon and Lineweaver–Burk plots. The inhibition constant (K i) values were determined using the equations for competitive inhibition (Eq. 1), noncompetitive inhibition (Eq. 2), uncompetitive inhibition (Eq. 3), and mixed inhibition (Eq. 4). v=VmaxS/Km(1+I/Ki)+S (1) v=VmaxS/(Km+S)(1+I/Ki) (2) v=VmaxS/S(1+I/Ki)+Km (3) v=VmaxS/Km(1+I/Ki)+S(1+I/αKi) (4)

CYP3A4 [3] = target: T1, CYP3A4; assay: Inhibition of CYP3A4-mediated oxidation of clinical drugs (tamoxifen, gefitinib, ticagrelor) in HLM, LC-MS/MS; format: in vitro ADME; settings: 30 min, ± SD
Experimental: Varying concentrations of DGK, GK, IGK, and AMF incubated for 30 min with gefitinib (10 μM), tamoxifen (20 μM), ticagrelor (30 μM), respectively ([Wang et al., 2020]). The ExionLC AD HPLC system consisted of an autosampler, a quaternary delivery system and a degasser. The chromatograph was equipped with a Luna Omega PS C18 (2.1 × 100 mm, 3 μm) analytical column, and the mobile phase consisted of 0.1% formic acid aqueous solution (A) and ACN (B), and were conducted with a 0.30 ml/min flow rate as follow for the gradient program: 0–1.5 min (10–10% B), 1.5–3.0 min (10–45% B), 3.0–5.0 min (45–90% B). An AB MDS Sciex QTRAP 5500 Mass Spectrometer equipped with an ESI source was used to analyze the target substances. The positive mode was used with N-demethylated tamoxifen (358.0→58.0) and defluorinated gefitinib (445.0→128.0). The relative parameters were set as follows: ion spray voltage, 5500 V; temperature, 550°C; curtain gas (CUR) flow, […]; gas1 and gas2 (nitrogen), 45 and 55 psi. The negative mode was used with dehydroxyethoxylated ticagrelor (477.2→361.1). The relative parameters were set as follows: ion spray voltage, -4500 V; temperature, 550°C; curtain gas flow, […]; gas1 and gas2, 50 and 50 psi. For other parameters, please refer to Supplementary Table S1 in the supplementary data.

CYP3A4 [4] = target: T1, CYP3A4; set-up: method as in Ning et al., 2019; settings: HLM; ref Ning et al., 2019; cited from earlier work
[5] = gefitinib 10 μM, defluorination, read-out: IC50 toward gefitinib
[6] = tamoxifen 20 μM, N-demethylation, read-out: IC50 toward tamoxifen
[7] = ticagrelor 30 μM, dehydroxyethoxylation, read-out: IC50 toward ticagrelor

T1 sequence (P08684 whole entry): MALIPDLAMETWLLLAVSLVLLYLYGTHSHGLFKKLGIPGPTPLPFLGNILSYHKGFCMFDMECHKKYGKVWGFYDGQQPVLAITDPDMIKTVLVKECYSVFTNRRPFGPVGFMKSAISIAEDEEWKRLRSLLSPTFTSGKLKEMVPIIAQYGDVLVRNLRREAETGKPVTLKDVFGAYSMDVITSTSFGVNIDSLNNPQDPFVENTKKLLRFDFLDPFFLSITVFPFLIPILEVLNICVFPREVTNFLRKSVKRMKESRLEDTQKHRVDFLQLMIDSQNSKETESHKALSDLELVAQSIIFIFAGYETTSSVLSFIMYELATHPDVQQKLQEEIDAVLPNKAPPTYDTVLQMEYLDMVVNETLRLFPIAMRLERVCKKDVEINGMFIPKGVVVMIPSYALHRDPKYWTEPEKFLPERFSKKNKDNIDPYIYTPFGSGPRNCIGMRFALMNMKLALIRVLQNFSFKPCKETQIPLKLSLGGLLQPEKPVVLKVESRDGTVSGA

Row | Structure (SMILES) | IC50 (CYP3A4 [1]) | Type of inhibition (CYP3A4 [2]) | Ki (CYP3A4 [2]) | ɑ (degree to which inhibitor binding influences enzyme-substrate binding) (CYP3A4 [2]) | IC50 (CYP3A4 [3]; [5]) | IC50 (CYP3A4 [3]; [6]) | IC50 (CYP3A4 [3]; [7]) | Inhibition of C4-hydroxylation of NEN in human liver microsomes (in words) (CYP3A4 [4])
1 | O=c1cc(-c2ccc(O)c(-c3c(O)cc(O)c4c(=O)cc(-c5ccc(O)cc5)oc34)c2)oc2cc(O)cc(O)c12 [AMF, Amentoflavone] | 186 ± 4 nM | mixed reversible inhibition | 101 ± 30 nM | 5.55 | 5200 ± 527 nM | 2720 ± 93 nM | 2920 ± 47 nM | 
2 | Cc1ccc(-c2c(-c3nn(C)c4ncnc(N5CC[C@H](N6CCCCC6)C5)c34)cnn2C)cc1 [CYP3cide] |  |  |  |  |  |  |  | strongly inhibited
3 | COc1ccc(-c2cc(=O)c3c(O)cc(O)cc3o2)cc1-c1c(O)cc(O)c2c(=O)cc(-c3ccc(O)cc3)oc12 [DGK, bilobetin] | 162 ± 22 nM | mixed reversible inhibition | 70 ± 18 nM | 2.98 | 1720 ± 1 nM | 1020 ± 88 nM | 3500 ± 34 nM | 
4 | COc1cc(O)c2c(=O)cc(-c3ccc(OC)c(-c4c(O)cc(O)c5c(=O)cc(-c6ccc(O)cc6)oc45)c3)oc2c1 [GK, ginkgetin] | 106 ± 4 nM | mixed reversible inhibition | 34 ± 7 nM | 4.56 | 869 ± 1 nM | 478 ± 3 nM | 1610 ± 39 nM | 
5 | COc1ccc(-c2cc(=O)c3c(O)cc(O)c(-c4cc(-c5cc(=O)c6c(O)cc(O)cc6o5)ccc4OC)c3o2)cc1 [IGK, isoginkgetin] | 982 ± 6 nM | mixed reversible inhibition | 278 ± 87 nM | 2.79 | 13100 ± 415 nM | 4660 ± 236 nM | 10200 ± 382 nM | 
